From ChEMBL document CHEMBL5465560, “Selectivity Literature for EUbOPEN Chemogenomic Library” (2024) come the findings set out here.

The target in assay [1] is T1, Mitogen-activated protein kinase kinase kinase 5 (Homo sapiens) (UniProt Q99683).
T1 sequence (whole entry): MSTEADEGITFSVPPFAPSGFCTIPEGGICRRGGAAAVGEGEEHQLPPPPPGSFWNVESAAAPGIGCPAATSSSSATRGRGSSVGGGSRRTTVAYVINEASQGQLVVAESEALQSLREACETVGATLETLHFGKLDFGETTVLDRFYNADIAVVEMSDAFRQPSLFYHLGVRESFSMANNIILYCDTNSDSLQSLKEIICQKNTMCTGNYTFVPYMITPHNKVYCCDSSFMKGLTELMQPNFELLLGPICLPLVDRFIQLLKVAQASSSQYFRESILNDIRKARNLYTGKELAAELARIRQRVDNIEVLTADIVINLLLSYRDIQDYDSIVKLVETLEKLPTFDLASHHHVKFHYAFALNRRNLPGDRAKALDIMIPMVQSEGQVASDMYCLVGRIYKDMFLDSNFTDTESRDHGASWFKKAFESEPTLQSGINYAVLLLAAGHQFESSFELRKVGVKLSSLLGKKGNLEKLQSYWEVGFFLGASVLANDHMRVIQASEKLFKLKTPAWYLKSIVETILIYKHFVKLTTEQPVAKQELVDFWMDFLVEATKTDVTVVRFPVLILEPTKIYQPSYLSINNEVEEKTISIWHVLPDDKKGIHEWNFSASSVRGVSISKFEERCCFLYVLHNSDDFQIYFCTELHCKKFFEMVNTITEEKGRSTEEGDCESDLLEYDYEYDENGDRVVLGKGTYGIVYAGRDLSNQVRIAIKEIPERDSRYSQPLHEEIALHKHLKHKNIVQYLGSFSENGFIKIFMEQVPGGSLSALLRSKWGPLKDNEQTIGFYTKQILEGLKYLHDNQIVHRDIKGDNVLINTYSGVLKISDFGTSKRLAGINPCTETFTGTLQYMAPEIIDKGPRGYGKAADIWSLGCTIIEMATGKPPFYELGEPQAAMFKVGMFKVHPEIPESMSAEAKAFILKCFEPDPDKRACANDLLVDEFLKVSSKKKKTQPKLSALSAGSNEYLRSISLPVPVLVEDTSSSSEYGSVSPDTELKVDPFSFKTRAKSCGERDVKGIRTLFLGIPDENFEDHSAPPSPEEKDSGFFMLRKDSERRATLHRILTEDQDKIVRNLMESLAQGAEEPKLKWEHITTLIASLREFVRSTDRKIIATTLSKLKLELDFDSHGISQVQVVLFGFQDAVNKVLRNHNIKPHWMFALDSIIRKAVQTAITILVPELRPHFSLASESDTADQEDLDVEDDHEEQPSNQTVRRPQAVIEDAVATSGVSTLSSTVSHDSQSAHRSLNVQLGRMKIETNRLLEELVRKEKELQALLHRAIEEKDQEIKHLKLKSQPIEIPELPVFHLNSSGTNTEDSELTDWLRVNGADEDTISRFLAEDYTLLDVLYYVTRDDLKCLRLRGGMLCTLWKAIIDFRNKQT
To be noted: at 10 µM.

The target of assay [2] is T2, Myosin light chain kinase family member 4 (Homo sapiens) (UniProt Q86YV6).
T2 sequence (whole entry): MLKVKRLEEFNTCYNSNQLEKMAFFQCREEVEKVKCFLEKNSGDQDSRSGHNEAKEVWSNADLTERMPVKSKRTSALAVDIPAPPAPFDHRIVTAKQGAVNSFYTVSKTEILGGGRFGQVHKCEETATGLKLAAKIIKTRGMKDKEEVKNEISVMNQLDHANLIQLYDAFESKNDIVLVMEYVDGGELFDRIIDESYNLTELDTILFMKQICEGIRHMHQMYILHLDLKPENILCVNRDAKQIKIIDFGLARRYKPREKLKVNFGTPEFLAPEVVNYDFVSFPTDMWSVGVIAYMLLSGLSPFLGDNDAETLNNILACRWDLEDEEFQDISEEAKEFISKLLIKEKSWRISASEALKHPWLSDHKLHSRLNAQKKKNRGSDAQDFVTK
As to the kind of experiment: Selectivity interaction (KinomeScan (DiscoverX)) EUB0001079a MYLK4. To be noted: at 1 µM.

Assay [3] has as its target Dual specificity mitogen-activated protein kinase kinase 1 (Homo sapiens, UniProt Q02750). As to the kind of experiment: Selectivity interaction (KinomeScan (DiscoverX)) EUB0000092b MAP2K1. To be noted: at 10 µM.
In assay [4] the target is Phosphatidylinositol 4,5-bisphosphate 3-kinase catalytic subunit gamma isoform (Homo sapiens) (UniProt P48736). Put plainly: Selectivity interaction (KinomeScan (DiscoverX)) EUB0000666a PIK3CG. To be noted: at 10 µM.
The target in assay [5] is Serine/threonine-protein kinase SIK3 (Homo sapiens) (UniProt Q9Y2K2). Put plainly: Selectivity interaction (LanthaScreen Eu Kinase Binding Assay) EUB0001632a SIK3. To be noted: at 10 µM. For orientation: In TR-FRET formats the signal depends on donor and acceptor labels being close together.
Assay [6] concerns the target Ribosomal protein S6 kinase alpha-3 (Homo sapiens, UniProt P51812). As to the kind of experiment: Selectivity interaction (ActivX KiNativ screen (kinase selectivity in THP-1 cell lysates)) EUB0000639a RPS6KA3. Type of assay: subcellular. To be noted: lysate, at 0.04 µM.

Dual specificity mitogen-activated protein kinase kinase 1, sequence (Q02750 whole entry, canonical isoform): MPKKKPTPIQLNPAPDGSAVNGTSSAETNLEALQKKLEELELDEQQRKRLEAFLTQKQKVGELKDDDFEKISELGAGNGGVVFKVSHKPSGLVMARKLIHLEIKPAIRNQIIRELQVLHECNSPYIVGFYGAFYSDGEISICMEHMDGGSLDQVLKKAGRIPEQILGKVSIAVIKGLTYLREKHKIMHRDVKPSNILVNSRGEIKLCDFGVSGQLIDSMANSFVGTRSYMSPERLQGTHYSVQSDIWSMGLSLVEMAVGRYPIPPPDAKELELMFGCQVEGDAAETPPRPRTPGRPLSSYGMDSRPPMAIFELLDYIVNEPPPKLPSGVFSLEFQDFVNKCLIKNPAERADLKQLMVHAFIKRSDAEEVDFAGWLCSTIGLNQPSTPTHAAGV
Ribosomal protein S6 kinase alpha-3, sequence (P51812 whole entry): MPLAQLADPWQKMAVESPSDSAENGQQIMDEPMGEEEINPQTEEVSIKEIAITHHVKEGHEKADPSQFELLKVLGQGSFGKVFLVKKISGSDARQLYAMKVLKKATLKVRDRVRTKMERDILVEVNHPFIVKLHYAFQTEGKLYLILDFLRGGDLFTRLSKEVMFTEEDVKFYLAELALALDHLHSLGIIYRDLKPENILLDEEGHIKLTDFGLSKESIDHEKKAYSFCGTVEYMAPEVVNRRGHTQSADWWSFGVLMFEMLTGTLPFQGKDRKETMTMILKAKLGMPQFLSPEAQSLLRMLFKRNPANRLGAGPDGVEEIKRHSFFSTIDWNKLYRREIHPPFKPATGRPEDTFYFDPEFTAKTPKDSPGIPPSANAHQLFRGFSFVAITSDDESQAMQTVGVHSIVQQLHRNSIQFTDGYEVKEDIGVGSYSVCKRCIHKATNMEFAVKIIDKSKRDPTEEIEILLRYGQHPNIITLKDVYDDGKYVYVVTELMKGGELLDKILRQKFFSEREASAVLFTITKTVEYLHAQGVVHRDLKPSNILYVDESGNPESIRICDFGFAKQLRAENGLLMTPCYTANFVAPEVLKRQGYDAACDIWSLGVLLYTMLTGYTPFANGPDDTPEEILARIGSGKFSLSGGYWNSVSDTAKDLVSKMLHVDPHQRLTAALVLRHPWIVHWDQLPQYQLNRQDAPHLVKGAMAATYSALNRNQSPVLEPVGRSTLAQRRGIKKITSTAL
Phosphatidylinositol 4,5-bisphosphate 3-kinase catalytic subunit gamma isoform (Homo sapiens), sequence (P48736 whole entry, looked up, canonical isoform): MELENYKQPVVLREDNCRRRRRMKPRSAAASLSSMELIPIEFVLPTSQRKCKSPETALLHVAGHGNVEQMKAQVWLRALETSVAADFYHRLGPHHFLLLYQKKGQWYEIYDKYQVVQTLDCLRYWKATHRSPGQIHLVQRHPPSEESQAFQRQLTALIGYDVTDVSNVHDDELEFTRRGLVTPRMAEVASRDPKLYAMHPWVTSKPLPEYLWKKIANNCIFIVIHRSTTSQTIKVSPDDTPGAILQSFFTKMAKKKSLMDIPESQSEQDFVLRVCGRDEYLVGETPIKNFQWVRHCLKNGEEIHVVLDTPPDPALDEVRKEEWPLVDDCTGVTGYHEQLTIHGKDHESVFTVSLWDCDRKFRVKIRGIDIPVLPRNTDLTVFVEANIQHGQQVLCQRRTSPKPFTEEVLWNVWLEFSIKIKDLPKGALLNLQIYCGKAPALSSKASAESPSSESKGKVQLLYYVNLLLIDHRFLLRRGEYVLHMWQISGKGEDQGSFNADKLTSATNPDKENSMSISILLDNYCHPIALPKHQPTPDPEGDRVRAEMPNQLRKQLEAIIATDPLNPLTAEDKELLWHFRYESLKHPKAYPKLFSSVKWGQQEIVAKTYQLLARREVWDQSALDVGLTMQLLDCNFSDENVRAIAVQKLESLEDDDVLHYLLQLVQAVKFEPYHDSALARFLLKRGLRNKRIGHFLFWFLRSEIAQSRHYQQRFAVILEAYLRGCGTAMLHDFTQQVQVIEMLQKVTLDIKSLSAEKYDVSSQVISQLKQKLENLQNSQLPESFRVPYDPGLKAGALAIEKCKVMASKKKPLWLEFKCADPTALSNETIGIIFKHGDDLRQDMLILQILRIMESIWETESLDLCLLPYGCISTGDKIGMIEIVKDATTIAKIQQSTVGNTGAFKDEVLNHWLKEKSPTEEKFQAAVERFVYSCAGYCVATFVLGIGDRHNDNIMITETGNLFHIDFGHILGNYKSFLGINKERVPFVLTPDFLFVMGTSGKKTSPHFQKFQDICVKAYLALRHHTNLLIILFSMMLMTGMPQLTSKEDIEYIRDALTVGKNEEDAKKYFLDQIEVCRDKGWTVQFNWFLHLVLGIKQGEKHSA
Serine/threonine-protein kinase SIK3 (Homo sapiens), sequence (Q9Y2K2 whole entry, looked up): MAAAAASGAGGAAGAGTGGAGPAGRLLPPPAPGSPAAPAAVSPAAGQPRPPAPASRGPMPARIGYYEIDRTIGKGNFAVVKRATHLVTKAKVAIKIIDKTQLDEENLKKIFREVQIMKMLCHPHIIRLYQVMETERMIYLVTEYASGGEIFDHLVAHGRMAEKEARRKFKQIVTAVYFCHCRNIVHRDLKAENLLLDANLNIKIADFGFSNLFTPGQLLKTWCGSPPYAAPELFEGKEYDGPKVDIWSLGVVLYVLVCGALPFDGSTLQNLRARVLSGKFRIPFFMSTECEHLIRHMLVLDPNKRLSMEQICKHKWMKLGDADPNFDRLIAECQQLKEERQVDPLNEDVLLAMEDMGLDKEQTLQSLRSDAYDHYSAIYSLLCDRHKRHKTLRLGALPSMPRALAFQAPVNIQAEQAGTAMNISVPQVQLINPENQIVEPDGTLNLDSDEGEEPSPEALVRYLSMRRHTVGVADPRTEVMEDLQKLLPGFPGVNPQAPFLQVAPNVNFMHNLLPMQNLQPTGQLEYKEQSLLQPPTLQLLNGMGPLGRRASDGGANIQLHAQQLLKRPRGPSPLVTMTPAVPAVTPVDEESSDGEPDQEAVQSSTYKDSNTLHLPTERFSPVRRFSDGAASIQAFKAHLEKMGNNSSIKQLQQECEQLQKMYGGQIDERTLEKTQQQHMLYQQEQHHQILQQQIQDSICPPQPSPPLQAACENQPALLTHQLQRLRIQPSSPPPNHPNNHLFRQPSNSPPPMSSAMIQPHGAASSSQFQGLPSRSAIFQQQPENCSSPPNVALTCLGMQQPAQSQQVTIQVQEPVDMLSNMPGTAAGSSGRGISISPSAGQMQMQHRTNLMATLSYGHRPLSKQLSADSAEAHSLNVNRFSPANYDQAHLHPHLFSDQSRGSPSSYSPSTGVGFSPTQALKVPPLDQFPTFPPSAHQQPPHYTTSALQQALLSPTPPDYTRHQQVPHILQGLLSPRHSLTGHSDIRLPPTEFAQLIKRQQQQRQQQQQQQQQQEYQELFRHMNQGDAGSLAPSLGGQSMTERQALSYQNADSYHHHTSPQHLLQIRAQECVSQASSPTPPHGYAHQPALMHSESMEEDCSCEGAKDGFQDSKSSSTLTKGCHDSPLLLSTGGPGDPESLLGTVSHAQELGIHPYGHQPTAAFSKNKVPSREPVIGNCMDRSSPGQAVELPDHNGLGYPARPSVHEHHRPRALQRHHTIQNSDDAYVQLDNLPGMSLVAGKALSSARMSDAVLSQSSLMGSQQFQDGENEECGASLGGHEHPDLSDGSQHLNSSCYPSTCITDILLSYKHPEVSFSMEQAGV

In assay [1], `CCN(CC)CCCCNc1ncc2cc(-c3cc(OC)cc(OC)c3)c(NC(=O)NC(C)(C)C)nc2n1` displayed a % of control of 100%.

For the compound `Nc1cnc(N2CCc3cc(S(=O)(=O)Nc4c(F)cc(Cl)cc4F)cc(N4CCCC4=O)c32)nc1` [TP-020n], the % of control in assay [2] came to 100%.

In assay [3], `CCC(=O)N1CCN(c2ccc(-n3c(=O)ccc4cnc5ccc(-c6cnc7ccccc7c6)cc5c43)cc2C(F)(F)F)CC1` came in with a % of control of 100%.

`O=C(NOC[C@H](O)CO)c1ccc(F)c(F)c1Nc1ccc(I)cc1F` displayed a % of control in assay [4] of 88%.

For the compound `Cn1cc(-n2cnc3c(NCc4nc5cc(Cl)c(Cl)cc5[nH]4)nc(N4CCOCC4)nc32)cn1`, in assay [5], the % of inhibition stood at 12.2%.

On to `CC[C@@H]1[C@H](F)C(=O)N[C@@H]1COc1nccc2cc(C(N)=O)c(OC)cc12` [ZIMLOVISERTIB], for which the % of inhibition in assay [6] is -18.2%.
